Experimental data from patent US7928060B2, “Amylin family polypeptide-6 (AFP-6) analogs and methods of making and using them” (Amylin Pharmaceuticals, Inc., priority 2004, dated 2011).
Where two headings read alike, the source gives them in different places. Bridge positions count the residues as written; N and C are the ends. Peptide text beside a SMILES is read from it.

Assays:
calcitonin receptor [1] = target: T1, calcitonin receptor (Homo sapiens, UniProt P30988); assay: cAMP production in T47D cells (AlphaScreen)
T1 sequence (P30988 25-474): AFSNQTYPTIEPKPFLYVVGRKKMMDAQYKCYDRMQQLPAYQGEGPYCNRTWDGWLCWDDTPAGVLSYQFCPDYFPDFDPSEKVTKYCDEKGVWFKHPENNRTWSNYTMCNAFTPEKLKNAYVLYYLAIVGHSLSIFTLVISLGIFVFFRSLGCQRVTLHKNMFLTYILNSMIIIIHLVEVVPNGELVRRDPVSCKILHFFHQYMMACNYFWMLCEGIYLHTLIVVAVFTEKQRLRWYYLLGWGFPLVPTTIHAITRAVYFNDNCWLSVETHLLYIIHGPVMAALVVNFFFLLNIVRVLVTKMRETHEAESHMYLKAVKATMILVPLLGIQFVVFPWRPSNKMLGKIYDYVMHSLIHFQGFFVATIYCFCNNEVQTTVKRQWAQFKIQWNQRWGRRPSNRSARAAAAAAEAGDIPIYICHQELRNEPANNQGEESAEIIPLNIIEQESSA

calcitonin receptor [2] = assay: cAMP production in CHO cells (AlphaScreen); assay type: cell-based; details: for EC50: CHO, 30,000 cells/well; for rank order of potency, CHO cell experiments: panel of related peptides
adrenomedullin receptor [3] = target: adrenomedullin receptor (Homo sapiens, UniProt O60895+Q16602); assay: cAMP production in HUVECs (AlphaScreen); assay type: cell-based; set-up: tested for bioactivity in HUVECs that contain the adrenomedullin receptor; endogenous in cells; host or cells: HUVEC; details: cAMP, FIG. 9
rats = assay: telemetry of cardiovascular parameters in conscious rats; assay type: in vivo, rat; details: 10 nmol/kg intravenous, 1 hour
Source text: Telemetry allows for real-time hemodynamic readings including arterial pressure, heart rate, arterial dP/dt, ECG (with waveform intervals) and core temperature via an implanted radio transmitter in conscious, non-anesthetized, unrestrained rats. […] Remote intravenous dosing is achieved through in-dwelling vascular access ports.

adrenomedullin receptor [4] = details: cited from earlier work

Sequence of adrenomedullin receptor (Homo sapiens, UniProt O60895+Q16602) (Q16602 23-461): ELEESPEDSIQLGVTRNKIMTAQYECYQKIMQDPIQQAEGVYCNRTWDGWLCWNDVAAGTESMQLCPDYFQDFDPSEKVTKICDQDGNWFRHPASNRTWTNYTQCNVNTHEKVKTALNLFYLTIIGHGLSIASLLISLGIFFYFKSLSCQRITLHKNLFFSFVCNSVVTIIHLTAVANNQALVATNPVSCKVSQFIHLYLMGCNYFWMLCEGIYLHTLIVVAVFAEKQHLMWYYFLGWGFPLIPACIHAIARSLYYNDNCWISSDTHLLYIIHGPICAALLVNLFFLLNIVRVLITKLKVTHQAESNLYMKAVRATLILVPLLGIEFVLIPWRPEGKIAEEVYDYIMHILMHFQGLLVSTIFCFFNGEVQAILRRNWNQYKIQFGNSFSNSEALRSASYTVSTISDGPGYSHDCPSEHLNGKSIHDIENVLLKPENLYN
Sequence of adrenomedullin receptor (Homo sapiens, UniProt O60895+Q16602) (O60895 43-175): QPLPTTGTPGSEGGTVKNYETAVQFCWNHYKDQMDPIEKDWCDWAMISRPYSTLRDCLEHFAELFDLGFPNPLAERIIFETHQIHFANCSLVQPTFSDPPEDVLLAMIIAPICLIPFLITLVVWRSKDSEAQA

CC(C)C[C@H](NC(=O)CNC(=O)[C@H](C)NC(=O)[C@H](CC(C)C)NC(=O)[C@H](CCCNC(=N)N)NC(=O)[C@H](Cc1c[nH]cn1)NC(=O)[C@@H](NC(=O)[C@@H](NC(=O)[C@@H]1CSSC[C@H](NC(=O)[C@H](C)N)C(=O)N[C@@H](CC(=O)O)C(=O)N[C@@H]([C@@H](C)O)C(=O)N[C@@H](C)C(=O)N[C@@H]([C@@H](C)O)C(=O)N1)C(C)C)[C@@H](C)O)C(=O)N[C@@H](CC(C)C)C(=O)N[C@@H](CO)C(=O)N[C@@H](CCCNC(=N)N)C(=O)N[C@@H](CO)C(=O)NCC(=O)NCC(=O)N[C@@H](Cc1c[nH]c2ccccc12)C(=O)N[C@@H](CCCCN)C(=O)N[C@@H](CC(N)=O)C(=O)N[C@@H](CC(N)=O)C(=O)N[C@@H](Cc1ccccc1)C(=O)N[C@H](C(=O)N1CCC[C@H]1C(=O)N[C@H](C(=O)N[C@@H](CC(N)=O)C(=O)N[C@H](C(=O)NCC(=O)N[C@@H](CO)C(=O)N[C@@H](CCCCN)C(=O)N[C@@H](C)C(=O)N[C@@H](Cc1ccccc1)C(N)=O)C(C)C)[C@@H](C)O)C(C)C [SEQ ID NO: 7] (H-ACDTATCVTHRLAGLLSRSGGWKNNFVPTNVGSKAF-NH2; disulfide 2-7 (inferred); N-terminus assumed)
rank order of potency, T47D cells (calcitonin receptor [1]): calcitonin>amylin >AFP-6=hCGRP alpha>adrenomedullin | EC50 (calcitonin receptor [2]; average of three experiments, read-out: Average EC50): 80.4 nM | EC50 (calcitonin receptor [2]; read-out: Experiment 1 EC50): 70.3 nM | EC50 (calcitonin receptor [2]; read-out: Experiment 2 EC50): 81.2 nM | EC50 (calcitonin receptor [2]; read-out: Experiment 3 EC50): 89.7 nM | rank order of potency in CHO cells (calcitonin receptor [2]; cAMP, FIG. 9): AFP-6>adrenomedullin=CGRP alpha | rank order of potency, CHO cell experiments (calcitonin receptor [2]; cAMP): calcitonin >AFP-6>amylin >hCGRP alpha>adrenomedullin | rank order of potency in HUVECs (adrenomedullin receptor [3]): adrenomedullin >AFP-6>>CGRP alpha

Amylin: amylin as reviewed in Wimalawansa (1997), species not stated
dp/dt (rats): acutely increases the dp/dt, but the effect tapers off over time | mean arterial pressure (MAP) (rats): increases mean arterial pressure (MAP) acutely and then may lower MAP in the first 30 minutes | binding affinity at the adrenomedullin receptor (adrenomedullin receptor [4]): several hundred | rank order of potency, CHO cell experiments (calcitonin receptor [2]; cAMP): calcitonin >AFP-6>amylin >hCGRP alpha>adrenomedullin
